Reference: patent US10155021B2, “Antimicrobial 4-oxoquinolizines” (Emergent Product Development Gaithersburg Inc., priority 2011, dated 2018)
Converted amounts (≈) assume the structure as drawn. “And” between values parts separate entries of the source, which are not always exact repeats. Identical values can stand only once.

What was measured:
[1] = test system: GN48 Klebsiella pneumoniae; test: Chequerboard synergy with polymyxin B (FICI); assay type: cell-based
From the text: (§1) A chequerboard technique was used to identify possible synergistic or antagonistic interactions between the 4-oxoquinolizines compounds, levofloxacin and polymyxin B. Levofloxacin was included as a control. […] Final dilutions were made in Mueller-Hinton broth, the specific test medium used for MIC determinations according to CLSI guidelines (CLSI. Methods for Dilution Antimicrobial Susceptibility Tests for Bacteria That Grow Aerobically; Approved Standard-Eighth Edition (2009). CLSI Document M07-A8. CLSI, Wayne, Pa. 19087-1898, USA.). The test medium used was a cation-adjusted Mueller-Hinton Broth II (Becton Dickinson UK Ltd., Oxford Science Park, Oxford, UK, OX4 4DQ).
(§2) The compounds 2, 33 and 35, as well as levofloxacin were tested in combination with polymyxin B on the following isolates: GN31 Acinetobacter baumannii—antibiotic susceptible clinical isolate, GN52 Acinetobacter baumannii—levofloxacin resistant clinical isolate, GN56 Acinetobacter baumannii—levofloxacin resistant clinical isolate, GN48 Klebsiella pneumoniae—NCTC 13443—NDM-1-metallo-R-lactamase and GN10 Pseudomonas aeruginosa—ATCC 27853—antibiotic susceptible reference isolate. All isolates are from the collection maintained at Quotient Bioresearch Ltd., Cambridge, UK.
(§3) The MIC values for the compounds and polymyxin B and levofloxacin were determined by broth microdilution following CLSI guidelines, and the MICs of agents in combination were determined as described by Pillai et.al (Pillai S K, Moellering R C Jr, Eliopoulis G M; Antimicrobial Combinations in Antibiotics in Laboratory Medicine 5th Edition (V. Lorian Ed) (2005) p 365-440). Initial MIC results were used to determine the microtiter plate patterns for the chequerboards. A suitable doubling dilution concentration range was selected such that the combination antibiotic range was at least two concentrations above and four concentrations below the MIC for each isolate. A fixed range of 0.008 to 8 mg/L was tested for polymyxin B except in the case of A. baumannii GN31 where a range of 0.004 to 4 mg/L was tested when in combination with the compounds 2, 33 and 35 as well as levofloxacin.
(§4) From the raw data, fractional inhibitory concentration indices (FICI) were determined for the compounds of the invention and levofloxacin together with polymyxin B for each isolate as follows: FICI=FICX+FICY Where,
(§5) FICX=concentration of the combination antibiotic in a particular row÷MIC of the combination drug alone
(§6) FICY=MIC of polymyxin B in combination÷MIC of the polymyxin B alone
(§7) Additionally isobolograms were created to represent the same data visually. Here, the MIC of polymyxin B was plotted against every concentration of the combination antibiotic up to the MIC.

[2] = test system: GN52 Acinetobacter baumannii; test: Chequerboard synergy with polymyxin B (FICI); assay type: cell-based
From the text: as §1, §2, §3, §4, §5, §6, §7

[3] = test system: GN56 Acinetobacter baumannii; test: Chequerboard synergy with polymyxin B (FICI); assay type: cell-based
From the text: as §1, §2, §3, §4, §5, §6, §7

[4] = test system: GN31 Acinetobacter baumannii; test: Chequerboard synergy with polymyxin B (FICI); assay type: cell-based
From the text: as §1, §2, §3, §4, §5, §6, §7

[5] = test system: GN48 Klebsiella pneumoniae; test: Pre-chequerboard MIC, broth microdilution (Example 6); assay type: cell-based; conditions: GN48 / NCTC 13443, NCTC 13443, NDM-1
From the text: as §1, §2, §3

[6] = test system: GN10 Pseudomonas aeruginosa; test: as above; assay type: cell-based; conditions: ATCC 27853 / GN10, ATCC 27853, antibiotic susceptible
From the text: as §1, §2, §3

[7] = test system: GN52 Acinetobacter baumannii; test: as above; assay type: cell-based; conditions: levofloxacin resistant clinical isolate
From the text: as §1, §2, §3

[8] = test system: GN56 Acinetobacter baumannii; test: as above; assay type: cell-based; conditions: levofloxacin resistant clinical isolate
From the text: as §1, §2, §3

[9] = test system: GN31 Acinetobacter baumannii; test: as above; assay type: cell-based; conditions: antibiotic susceptible clinical isolate
From the text: as §1, §2, §3

S. aureus 25923 HS = test: MIC, standard panel of Gram-positive and Gram-negative bacteria (CLSI); assay type: cell-based; conditions: Staphylococcus aureus, read-out: MIC S. aureus 25923 HS
E. coli 25922 = test: as above; assay type: cell-based, Escherichia coli; conditions: Escherichia coli, 25922, read-out: MIC E. coli 25922
E. faecium 19434 = test: as above; assay type: cell-based, Enterococcus faecium; conditions: Enterococcus faecium, 19434, read-out: MIC E. faecium 19434
A. baumanii 19606 = test: as above; assay type: cell-based; conditions: Acinetobacter baumannii, 19606, read-out: MIC A. baumanii 19606
S. aureus 101 = test: as above; assay type: cell-based, Staphylococcus aureus; conditions: Staphylococcus aureus, 101, read-out: MIC S. aureus 101
E. faecalis 29212 = test: as above; assay type: cell-based, Enterococcus faecalis; conditions: Enterococcus faecalis, 29212, read-out: MIC E. faecalis 29212
P. aeruginosa 27853 = test: as above; assay type: cell-based, Pseudomonas aeruginosa; conditions: Pseudomonas aeruginosa, 27853, read-out: MIC P. aeruginosa 27853
S. aureus 25923 = test: as above; assay type: cell-based, Staphylococcus aureus; conditions: Staphylococcus aureus, 25923, read-out: MIC S. aureus 25923
E. cloacae 13047 = test: as above; assay type: cell-based, Enterobacter cloacae; conditions: Enterobacter cloacae, 13047, read-out: MIC E. cloacae 13047
S. epidermis 12228 = test: as above; assay type: cell-based, Staphylococcus epidermis; conditions: Staphylococcus, 12228, read-out: MIC S. epidermis 12228

**Q.** What does the source list for Polymyxin B?
**A.** Polymyxin B MIC alone [1]: 0.5 µg/mL; Polymyxin B MIC alone [2]: 0.5 µg/mL; Polymyxin B MIC alone [3]: 0.5 µg/mL; Polymyxin B MIC alone [4]: 0.25 µg/mL and 0.5 µg/mL

**Q.** Which MIC [5] does the source give for `Cc1c(-c2ccc(N)nc2)ccn2c(=O)c(C(=O)O)cc(C3CC3)c12` [Compound 33, 8-(6-amino-3-pyridyl)-1-cyclopropyl-9-methyl-4-oxo-quinolizine-3-carboxylic acid] here?
**A.** Its MIC is 16 µg/mL.

**Q.** And the MIC [6]?
**A.** Its MIC is 0.5 µg/mL.

**Q.** And the MIC [7]?
**A.** Its MIC is 2 µg/mL.

**Q.** What about the MIC [8] of the same compound?
**A.** The MIC was 16 µg/mL.

**Q.** What about the MIC [9] of the same compound?
**A.** The MIC was 0.03 µg/mL.

**Q.** How did the “Combination drug MIC alone” value [1] turn out when `Cc1c(-c2ccc3[nH]ncc3c2)ccn2c(=O)c(C(=O)O)cc(C3CC3)c12` [Compound 35, 8-(1H-indazol-5-yl)-1-cyclopropyl-9-methyl-4-oxo-quinolizine-3-carboxylic acid] was run?
**A.** Its value is 16 µg/mL.

**Q.** And the Synergy ([1]; combination with polymyxin B)?
**A.** The Synergy was “partial synergy”.

**Q.** What about the MIC [5] of the same compound?
**A.** The MIC was 16 µg/mL.

**Q.** What about the MIC [6] of the same compound?
**A.** The MIC was 0.25 µg/mL.

**Q.** What about the MIC [7] of the same compound?
**A.** The MIC was 2 µg/mL.

**Q.** What about the MIC [8] of the same compound?
**A.** Its MIC is 8 µg/mL.

**Q.** And the MIC [9]?
**A.** Its MIC is 0.03 µg/mL.

**Q.** What does the source list for `CN[C@H](CC(C)C)C(=O)N[C@H]1C(=O)N[C@@H](CC(N)=O)C(=O)N[C@H]2C(=O)N[C@H]3C(=O)N[C@H](C(=O)N[C@H](C(=O)O)c4cc(O)cc(O)c4-c4cc3ccc4O)[C@H](O)c3ccc(c(Cl)c3)Oc3cc2cc(c3O[C@@H]2O[C@H](CO)[C@@H](O)[C@H](O)[C@H]2O[C@H]2C[C@](C)(N)[C@H](O)[C@H](C)O2)Oc2ccc(cc2Cl)[C@H]1O` [Vancomycin, reference compound]?
**A.** MIC (S. aureus 25923 HS): 2 µg/mL (≈ 1.38 µM); MIC (E. coli 25922): > 128 µg/mL; MIC (E. faecium 19434): 1 µg/mL (≈ 0.69 µM); MIC (A. baumanii 19606): > 128 µg/mL; MIC (S. aureus 101): 2 µg/mL (≈ 1.38 µM); MIC (E. faecalis 29212): 2 µg/mL (≈ 1.38 µM); MIC (P. aeruginosa 27853): > 128 µg/mL; MIC (S. aureus 25923): 2 µg/mL (≈ 1.38 µM); MIC (E. cloacae 13047): > 128 µg/mL; MIC (S. epidermis 12228): 2 µg/mL (≈ 1.38 µM)
